Measurements published in article PMC4578755, “Development of novel cellular histone-binding and chromatin-displacement assays for bromodomain drug discovery” (Epigenetics & Chromatin, 2015).

Assays:
[1] = target: T1, GFP-tagged TRIM24 in HeLa cells (Homo sapiens, UniProt O15164); experiment: GFP version of the in situ cell extraction assay; assay type: cell-based
T1 construct: PB-TRIM24 PHD and bromodomain of TRIM24; expressed in transfected cells; host or cells: HeLa
T1 sequence (O15164 810-1050 limits assumed): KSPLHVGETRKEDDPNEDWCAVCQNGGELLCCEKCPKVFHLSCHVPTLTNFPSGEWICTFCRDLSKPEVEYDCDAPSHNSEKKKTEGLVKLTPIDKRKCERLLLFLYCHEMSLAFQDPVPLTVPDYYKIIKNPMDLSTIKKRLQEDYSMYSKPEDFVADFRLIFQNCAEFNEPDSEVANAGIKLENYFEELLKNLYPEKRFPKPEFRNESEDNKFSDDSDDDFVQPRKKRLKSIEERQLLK
Excerpt: In an HTS setting, we further simplified the in situ cell extraction procedure by replacing the indirect IF step (e.g., anti-FLAG) with cells engineered to express fluorescent moieties (e.g., GFP) fused to the protein target of interest (Additional file 1: Figure S5). In this format, the assay has minimal time and reagent costs associated with HTS operation, since no further liquid handling or processing steps are needed after detergent extraction and fixation. […] This is particularly noteworthy for two orthogonal assays that monitor either the displacement of TRIM24 from chromatin/nuclear structures or directly measure TRIM24/histone-H3 dissociation in cells.
OV90 or HeLa cells (20,000 cells/100 µL) were seeded into 96-well plates (Corning Costar #3603) using RPMI or DMEM medium, respectively, supplemented with 10 % FBS and grown overnight. Test agents were serially diluted in DMSO (with or without SAHA) to generate 10X master compound plates. From here, 11 µL was transferred into each well containing 100 µL of growth media followed by shaking on a rotation table (15 min, 300 rpm at RT) and incubation at 37 °C for 2 h. Plates were washed once with PBS (150 µL/well) and then with cold, freshly prepared Cytoskeleton (CSK) Buffer (10 mM PIPES, 300 mM Sucrose, 100 mM NaCl, 3 mM MgCl2; pH = 6.8). Immediately thereafter, soluble, non-chromatin-bound proteins were extracted by addition of cold CSK Buffer supplemented with 0.5 % Triton X-100 (150 µL per well) for 10 min at 4 °C followed by 4 % paraformaldehyde fixation (10 min at RT) (Additional file 1: Table S3). […]
number of fields and the number of cells in 96- and 384-well format that is enough for analysis.
Figure S5. HTS-friendly GFP-version of the in situ cell extraction assay. (A) In situ cell extraction […]
cells were treated with TRIM24i in 96-well plate using concentration range from 20 nM to 100
µM. […] EC50 curve was calculated by Harmony software during the scan. […]
Figure S6. […] Extraction buffer was added to the wells and each field of view was monitored every 3 minutes during 15 minutes. […]

[2] = target: T2, TRIM24-PB/histone H3 co-localization in HeLa TRIM24-PB cells (Homo sapiens, UniProt O15164); experiment: Proximity ligation assay (PLA) TRIM24/histone H3; assay type: cell-based; settings: SAHA treatment; Alexa-conjugated secondary antibodies
T2 construct: The FLAG-TRIM24-PB construct (residues 810–1050) was generated by PCR amplification; expressed in transfected cells
T2 sequence (O15164 810-1050): T1 sequence (O15164 810-1050 limits assumed)
Description: Hela cells expressing FLAG-TRIM24-PHD-Bromo-V5 (TRIM24-PB) (20 K/100 µL) were seeded into 96-well plates (Corning Costar #CLS3603) in DMEM media supplemented with 10 % FBS and grown overnight. After treatment with SAHA (5 µM, 2 h), plates were washed with PBS (150ul per well) and fixed with 4 % paraformaldehyde (10 min at RT). PLA was performed using Duolink® In situ Red Starter Kit Mouse/Goat (Sigma-Aldrich, DUO92103), according to manufacturer’s recommendation. Primary antibody pair was: Goat anti-V5 (1:200 dilution; Bethyl #A190-119A) and Mouse anti-histone H3 (1:4000 dilution; Active Motif, #39763). Following PLA, secondary antibody Alexa Fluor®594 Donkey Anti-Goat (Invitrogen #A-11056) and Alexa Fluor®488 Donkey Anti-Mouse (Invitrogen #A-21202) were used to measure the total levels of V5 and histone H3. Using the High-Content Screening System Operetta with 40× magnification, cell images from 25 fields in each well were taken in 4 channels (Alexa488, Alexa594, Alexa647 and Hoechst). […] For each gated cell, we calculated the mean signal intensity for histone H3 (Alexa488 in the nucleus minus Alexa488 in the cytoplasm); TRIM24 (Alexa594 in the nucleus minus the […] intensity in the cytoplasm); and the mean number for the PLA signal (number of spots in nucleus). […]

EC50 ([1]; HeLa cells expressing GFP-tagged TRIM24, 1 h incubation) [nM] | Displacement of TRIM24-GFP from chromatin ([1]; after extraction) | Time to displacement of TRIM24-GFP from chromatin ([1]; data not shown) [min] | Mean nuclei levels of TRIM24 [2] | Compound
2300 | full displacement | ≤ 1 | – | Cc1nc(S(=O)(=O)Nc2cc3c(cc2Oc2cccc(OCC(C)C)c2)n(C)c(=O)n3C)cn1C [IACS-6558, N-{1,3-dimethyl-6-[3-(2-methylpropoxy)phenoxy]-2-oxo-2,3-dihydro-1H-1,3-benzodiazol-5-yl}-1,2-dimethyl-1H-imidazole-4-sulfonamide]
– | – | – | did not change | O=C(CCCCCCC(=O)Nc1ccccc1)NO [SAHA, Suberoylanilide Hydroxamic Acid]
